Laboratory results reported in paper PMC5679629, “Flavin-containing monooxygenase 3 (FMO3) role in busulphan metabolic pathway” (PLoS ONE, 2017).

Experiments:
[1] = parameters: method as in PMID 2886318; details: rats, cited from earlier work
FMO3 mRNA = assay: Gene expression in patients conditioned with busulphan (gene array, qRT-PCR); format: in vivo, human; details: oral Bu 2mg/kg b.i.d. for 4 days, normalized to GAPDH
Method: (§1) FMO3 mRNA expression was studied in twelve patients undergoing HSCT at the Center for Allogeneic Stem Cell Transplantation (CAST), Karolinska University Hospital-Huddinge, Sweden. The study was approved by the ethical committee of Karolinska Institutet (616/03) in accordance with the Helsinki Declaration of 1975 and with informed consent from each patient or their guardian. All patients were treated with oral Bu, administered at a dose of 2mg/kg (8μmol/kg) b.i.d. for 4 days followed by an i.v. infusion of cyclophosphamide (Cy) 60mg/kg/day (230μmol/kg/day) once daily for 2 days before the stem cell infusion.
(§2) Blood samples for mRNA quantification were collected in PAXgene^TM blood RNA tubes (BD, Stockholm, Sweden) prior to the start of Bu treatment and after the last Bu dose.
(§3) RNA was extracted from the mononuclear cells using QuickPreps^TM Total RNA Extraction Kit (GE Life Sciences, Uppsala, Sweden). RNA (1μg) was reverse transcribed to complementary DNA (cDNA) using the TaqMan^TM Kit (Applied Biosystems, Roche, NJ, USA).
Purified mRNA was subjected to analysis of global gene expression by using NimbleGen microarrays (Roche Diagnostics Scandinavia, Bromma, Sweden). Data were analyzed by Genespring GX (Agilent, CA, USA). Quantile normalization was used on the probe expression data generated using the Robust Multichip Average algorithm. […]

[2] = Busulphan and THT plasma kinetics in a patient treated concomitantly with voriconazole; format: in vivo, human; details: Bu 2mg/kg b.i.d. with concomitant voriconazole
Method: In order to confirm the contribution of FMO3 to human Bu kinetics, blood samples were collected (routinely) from a patient who underwent stem cell transplantation and was conditioned according to the hospital transplantation protocol i.e. high dose of Bu (2mg/kg b.i.d.) for four days followed with two days of cyclophosphamide (60mg/kg). […] Voriconazole was administered, according to the hospital clinical protocol, for the treatment of an acute fungal infection.
Samples were taken for therapeutic drug monitoring (TDM) at several time points after the first, third and fifth doses. Blood was collected into EDTA vacutainer tubes, plasma was separated by centrifugation at 1200 g and stored at -20°C until analysis of Bu and THT [18].

[3] = cited from earlier work
GSTA1 mRNA = assay: Gene expression in patients conditioned with busulphan (gene array); format: in vivo, human; details: oral Bu 2mg/kg b.i.d. for 4 days
Method: as §1, §2, §3
Purified mRNA was subjected to analysis of global gene expression by using NimbleGen microarrays (Roche Diagnostics Scandinavia, Bromma, Sweden). Data were analyzed by Genespring GX (Agilent, CA, USA). Quantile normalization was used on the probe expression data generated using the Robust Multichip Average algorithm.

in vivo = details: male, C57BL/6N, mouse, plasma, ip, 25 mg/kg
Method: (§4) Male C57BL/6N mice (6–8 weeks old) were purchased from Charles River (Cologne, Germany). The mice were allowed to acclimatize to the surroundings for 2 weeks with a 12h dark/12h light cycle and randomized for treatment. Standard laboratory chow and water ad libitum was introduced.
(§5) To study Bu and THT kinetics, Bu (Sigma-Aldrich, Steinheim, Germany) was administered i.p. (25mg/kg or 100μmol/kg) as a 2mM solution in DMSO (Sigma-Aldrich, Stockholm, Sweden) [21]. THT was also prepared as a 2mM solution in DMSO and the dose given was equimolar to the Bu treatment (i.e. 100μmol/kg or 8.8 mg/kg). Upon injection, samples were diluted with physiological NaCl solution to a final DMSO concentration of 10% in the dosing solution. At the appropriate time points (10min, 30min, 1h, 2h, 4h, 6h and 8h), mice (three mice at each time point) were anesthetized using 2% isoflurane and the blood samples were collected by heart puncture. Mice were euthanized by cervical dislocation. Plasma was separated and stored at -20°C.
(§6) PTU (3mg/kg) was dissolved in DMSO and diluted with physiological NaCl solution and then injected into the mice once daily followed by Bu or THT injections on the 4th day. The mice were euthanized and plasma samples prepared as in the previous experiment.
(§7) To detect the effect of high THT concentrations on Bu metabolism, a third group of mice was injected with both Bu (100μmol/kg) and a high dose of THT (17.6mg/kg or 200μmol/kg) and samples prepared as described previously. All experiments including negative controls (mice injected with 10% DMSO in NaCl solution) and mice injected with PTU alone were performed in triplicates.
(§8) To quantify Bu, samples were extracted according to the method reported previously by Hassan et al. [24]. Briefly, 500 μL of plasma were diluted with 500 μL of water. Fifty microliters of the internal standard (1,5-bis(methanesulfonoxy)pentane; 38.5 μM) were added, followed by the addition of 1 mL of sodium iodide (8M, Merck, Darmstadt, Germany) and 400μL of n-heptane (Merck, Darmstadt, Germany). The tubes were placed under magnetic stirring in a water bath (70°C) for 45 min. During the reaction, busulphan and 1,5-bis(methanesulfonoxy)pentane were converted to 1,4-diiodobutane and 1,5-diiodopentane respectively and subsequently extracted with n-heptane [25]. The conversion of busulphan and 1,5-bis(methanesulfonoxy)pentane to 1,4-diiodobutane and 1,5-diiodopentane was over 90% [24]. The organic phase was analyzed by GC-MS [18]. THT was quantified as described previously and the method was validated for use with mouse plasma before measuring both Bu and THT [19, 20].
(§9) Kinetic parameters from in vivo studies were estimated using WinNonLin software (standard edition, version 2.0), while Microsoft Excel and SigmaPlot software (version 12.5, Systat software, Inc.) were utilized for in vitro kinetics.

[4] = Busulphan kinetics in mice (alone, after PTU pretreatment, or with high-dose THT); details: for AUC / Cmax: male, C57BL/6N, mouse, plasma, ip, 25 mg/kg, mean
Method: as §4, §5, §6, §7, §8, §9

[5] = within 72 hours of administration
[6] = Group 1: mice, Bu 25mg/kg i.p. alone
[7] = Group 2: mice, Bu 25mg/kg i.p. after PTU 3mg/kg i.p. once daily for 3 days

Row | Structure (SMILES) | share of Bu excreted in urine as this metabolite [1, 5] | FMO3 mRNA after Bu conditioning versus before (FMO3 mRNA) | Bu levels versus same dose of Bu administered alone [2] | Bu clearance versus a patient treated with Bu alone ([2]; P<0.05) | Bu excreted in the urine as unchanged drug [1] | Bu excreted in the form of its subsequent metabolites [1, 5] | decrease of Bu clearance ([3]; child with AML, after two days concomitant metronidazole) | daily AUC in excess of the predicted ([3]; child with AML, concomitant metronidazole) | mean Bu trough levels with concomitant metronidazole ([3]; patients undergoing HSCT) | GSTA1 mRNA after Bu conditioning versus before (GSTA1 mRNA) | AUC (in vivo) | Cmax (in vivo) | AUC [4, 6] | AUC [4, 7] | Cmax [4, 6] | Cmax [4, 7] | Bu plasma concentrations and Bu exposure (AUC) versus Bu alone ([4]; mice treated with FMO3 inhibitor PTU before Bu administration) | levels of Bu versus Bu alone ([4]; mice, concomitant administration of THT and Bu)
1 | O=S1(=O)CCC(O)C1 (stereo not shown) [3-OH-sulfolane, 3-hydroxysulfolane] | 39% |  |  |  |  |  |  |  |  |  |  |  |  |  |  |  |  | 
2 | CS(=O)(=O)OCCCCOS(C)(=O)=O [Bu, Busulphan] |  | significant up-regulation | higher than expected | slower | 2% | more than 70% | 46% | 86% | two-fold higher | significantly up-regulated | 65.5 µM·h | 16.5 µM | 44.3 µM·h | 65.3 µM·h | 7.47 µM | 25.5 µM | significantly (P<0.05, t-test) higher | higher levels
3 | [O-][S+]1CCCC1 [THT 1-oxide, tetrahydrothiophene 1-oxide] | 20% |  |  |  |  |  |  |  |  |  |  |  |  |  |  |  |  | 
